# Assay results reported in patent US20250171457A1, “NITROGEN-CONTAINING HETEROCYCLIC COMPOUND HAVING NRF2 ACTIVATION EFFECT” (CHUGAI SEIYAKU KABUSHIKI KAISHA, priority 2022, published 2025).
# System: Nrf2 transcriptional activity (pARE-Luc reporter) in HepG2 cells
# Assay: In vitro Nrf2 transcriptional activity measurement by ARE-dependent reporter assay in HepG2 cell
# Type: cell-based, human
# Settings: Homo sapiens; HepG2 cells transfected with pARE-Luc, 4 hours at 37° C.; luciferase activity of Example 1-54 or Example 17-23 at 3.75 μM defined as 100%
# Summary of the method: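 Luminescence readout (Bright-Glo) after 4 h, 37° C compound exposure of HepG2 cells carrying the ARE-luciferase vector pGL4.37. Each well converted to % response versus reference compound at 3.75 μM, and EC50 derived from dose-response curves.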
row,SMILES,EC50
1,"Cn1ncc2c(-c3cc(Cl)c(C(=O)N4COc5c(cccc5-c5cc(N6C7CCC6COC7)c(C(=O)O)cc5F)C4)c(Cl)c3)cncc21 [Compound 3-5, 4-[3-[2,6-Dichloro-4-(1-methylpyrazolo[3,4-c]pyridin-4-yl)benzoyl]-2,4-dihydro-1,3-benzoxazin-8-yl]-5-fluoro-2-(3-oxa-8-azabicyclo[3.2.1]octan-8-yl)benzoic acid]",6.9 nM
2,"Cn1cc2cncc(-c3cc(Cl)c(C(=O)N4COc5c(cccc5-c5cc(N6C7CCC6COC7)c(C(=O)O)cc5F)C4)c(Cl)c3)c2n1 [Compound 3-6, 4-[3-[2,6-Dichloro-4-(2-methylpyrazolo[4,3-c]pyridin-7-yl)benzoyl]-2,4-dihydro-1,3-benzoxazin-8-yl]-5-fluoro-2-(3-oxa-8-azabicyclo[3.2.1]octan-8-yl)benzoic acid]",9 nM
3,"Cn1ncc2c(-c3cc(Cl)c(C(=O)N4COc5c(cccc5-c5cc(N6C7CCC6COC7)c(C(=O)O)cc5F)C4)c(Cl)c3)cccc21 [Compound 3-7, 4-[3-[2,6-Dichloro-4-(1-methylindazol-4-yl)benzoyl]-2,4-dihydro-1,3-benzoxazin-8-yl]-5-fluoro-2-(3-oxa-8-azabicyclo[3.2.1]octan-8-yl)benzoic acid]",9.6 nM
4,"Cc1nc2c(-c3cc(Cl)c(C(=O)N4COc5c(cccc5-c5cc(N6C7CCC6COC7)c(C(=O)O)cc5F)C4)c(Cl)c3)cncc2n1C [Compound 3-8, 4-[3-[2,6-Dichloro-4-(2,3-dimethylimidazo[4,5-c]pyridin-7-yl)benzoyl]-2,4-dihydro-1,3-benzoxazin-8-yl]-5-fluoro-2-(3-oxa-8-azabicyclo[3.2.1]octan-8-yl)benzoic acid]",17 nM
5,"Cn1nnc2cc(-c3cc(Cl)c(C(=O)N4COc5c(cccc5-c5cc(N6C7CCC6COC7)c(C(=O)O)cc5F)C4)c(Cl)c3)cnc21 [Compound 3-9, 4-[3-[2,6-Dichloro-4-(3-methyltriazolo[4,5-b]pyridin-6-yl)benzoyl]-2,4-dihydro-1,3-benzoxazin-8-yl]-5-fluoro-2-(3-oxa-8-azabicyclo[3.2.1]octan-8-yl)benzoic acid]",10 nM
6,"Cn1nc2cncc(-c3cc(Cl)c(C(=O)N4COc5c(cccc5-c5cc(N6C7CCC6COC7)c(C(=O)O)cc5F)C4)c(Cl)c3)c2n1 [Compound 3-10, 4-[3-[2,6-Dichloro-4-(2-methyltriazolo[4,5-c]pyridin-7-yl)benzoyl]-2,4-dihydro-1,3-benzoxazin-8-yl]-5-fluoro-2-(3-oxa-8-azabicyclo[3.2.1]octan-8-yl)benzoic acid]",4.7 nM
7,"Cn1nnc2c(-c3cc(Cl)c(C(=O)N4COc5c(cccc5-c5cc(N6C7CCC6COC7)c(C(=O)O)cc5F)C4)c(Cl)c3)cncc21 [Compound 3-11, 4-[3-[2,6-Dichloro-4-(3-methyltriazolo[4,5-c]pyridin-7-yl)benzoyl]-2,4-dihydro-1,3-benzoxazin-8-yl]-5-fluoro-2-(3-oxa-8-azabicyclo[3.2.1]octan-8-yl)benzoic acid]",5.7 nM
8,"Cn1cc2cc(-c3cc(Cl)c(C(=O)N4COc5c(cccc5-c5cc(N6C7CCC6COC7)c(C(=O)O)cc5F)C4)c(Cl)c3)ccc2n1 [Compound 3-12, 4-[3-[2,6-Dichloro-4-(2-methylindazol-5-yl)benzoyl]-2,4-dihydro-1,3-benzoxazin-8-yl]-5-fluoro-2-(3-oxa-8-azabicyclo[3.2.1]octan-8-yl)benzoic acid]",8.7 nM
9,"Cn1cc2nc(-c3cc(Cl)c(C(=O)N4COc5c(cccc5-c5cc(N6C7CCC6COC7)c(C(=O)O)cc5F)C4)c(Cl)c3)ccc2n1 [Compound 3-13, 4-[3-[2,6-Dichloro-4-(2-methylpyrazolo[4,3-b]pyridin-5-yl)benzoyl]-2,4-dihydro-1,3-benzoxazin-8-yl]-5-fluoro-2-(3-oxa-8-azabicyclo[3.2.1]octan-8-yl)benzoic acid]",9.7 nM
10,"Cn1ncc2cc(-c3cc(Cl)c(C(=O)N4COc5c(cccc5-c5cc(N6C7CCC6COC7)c(C(=O)O)cc5F)C4)c(Cl)c3)cnc21 [Compound 3-14, 4-[3-[2,6-Dichloro-4-(1-methylpyrazolo[3,4-b]pyridin-5-yl)benzoyl]-2,4-dihydro-1,3-benzoxazin-8-yl]-5-fluoro-2-(3-oxa-8-azabicyclo[3.2.1]octan-8-yl)benzoic acid]",8.8 nM
11,"Cn1ncc2cc(-c3cc(Cl)c(C(=O)N4COc5c(cccc5-c5cc(N6C7CCC6COC7)c(C(=O)O)cc5F)C4)c(Cl)c3)ccc21 [Compound 3-15, 4-[3-[2,6-Dichloro-4-(1-methylindazol-5-yl)benzoyl]-2,4-dihydro-1,3-benzoxazin-8-yl]-5-fluoro-2-(3-oxa-8-azabicyclo[3.2.1]octan-8-yl)benzoic acid]",8.4 nM
12,"Cn1ncc2c(-c3cc(Cl)c(C(=O)N4COc5c(cccc5-c5cc(N6C7CCC6COC7)c(C(=O)O)cc5F)C4)c(Cl)c3)ccnc21 [Compound 3-16, 4-[3-[2,6-Dichloro-4-(1-methylpyrazolo[3,4-b]pyridin-4-yl)benzoyl]-2,4-dihydro-1,3-benzoxazin-8-yl]-5-fluoro-2-(3-oxa-8-azabicyclo[3.2.1]octan-8-yl)benzoic acid]",11 nM
13,"Cn1nc2nccc(-c3cc(Cl)c(C(=O)N4COc5c(cccc5-c5cc(N6C7CCC6COC7)c(C(=O)O)cc5F)C4)c(Cl)c3)c2n1 [Compound 3-17, 4-[3-[2,6-Dichloro-4-(2-methyltriazolo[4,5-b]pyridin-7-yl)benzoyl]-2,4-dihydro-1,3-benzoxazin-8-yl]-5-fluoro-2-(3-oxa-8-azabicyclo[3.2.1]octan-8-yl)benzoic acid]",12 nM
14,"O=C(O)c1cc(F)c(-c2cccc3c2OCN(C(=O)c2c(Cl)cc(-c4ccn5cncc5c4)cc2Cl)C3)cc1N1C2CCC1COC2 [Compound 3-18, 4-[3-(2,6-Dichloro-4-imidazo[1,5-a]pyridin-7-ylbenzoyl)-2,4-dihydro-1,3-benzoxazin-8-yl]-5-fluoro-2-(3-oxa-8-azabicyclo[3.2.1]octan-8-yl)benzoic acid]",20 nM
15,"Cn1nnc2c(-c3cc(Cl)c(C(=O)N4COc5c(cccc5-c5cc(N6C7CCC6COC7)c(C(=O)O)cc5F)C4)c(Cl)c3)ccnc21 [Compound 3-19, 4-[3-[2,6-Dichloro-4-(3-methyltriazolo[4,5-b]pyridin-7-yl)benzoyl]-2,4-dihydro-1,3-benzoxazin-8-yl]-5-fluoro-2-(3-oxa-8-azabicyclo[3.2.1]octan-8-yl)benzoic acid]",8 nM
16,"Cn1nc2cc(-c3cc(Cl)c(C(=O)N4COc5c(cccc5-c5cc(N6C7CCC6COC7)c(C(=O)O)cc5F)C4)c(Cl)c3)cnc2n1 [Compound 3-20, 4-[3-[2,6-Dichloro-4-(2-methyltriazolo[4,5-b]pyridin-6-yl)benzoyl]-2,4-dihydro-1,3-benzoxazin-8-yl]-5-fluoro-2-(3-oxa-8-azabicyclo[3.2.1]octan-8-yl)benzoic acid]",9 nM
17,"Cn1cc(-c2cc(Cl)c(C(=O)N3COc4c(cccc4-c4cc(N5C6CCC5COC6)c(C(=O)O)cc4F)C3)c(Cl)c2)c2nccnc21 [Compound 3-21, 4-[3-[2,6-Dichloro-4-(5-methylpyrrolo[2,3-b]pyrazin-7-yl)benzoyl]-2,4-dihydro-1,3-benzoxazin-8-yl]-5-fluoro-2-(3-oxa-8-azabicyclo[3.2.1]octan-8-yl)benzoic acid]",6.4 nM
